Measured values: ChEMBL document CHEMBL5352419, “Design, synthesis, and biological evaluation of tetrahydroquinoline amphiphiles as membrane-targeting antimicrobials against pathogenic bacteria and fungi” (Eur J Med Chem, 2022)
Converted amounts (≈) assume the structure as drawn. The source made the active and inactive calls. The rule behind the calls is not given here.

Assays:
[1] = Cytotoxicity against mouse NCTC clone 929 cells assessed as viable cells at 6.25 ug/mL incubated for 24 hrs by CCK-8 assay relative to control; assay type: toxicity, cell-based; conditions: NCTC clone 929 (L929) cells, at 6.25 µg/mL, read-out: Activity
[2] = tested on: Acinetobacter baumannii; assay: Antimicrobial activity against Acinetobacter baumannii R2889 assessed as bacterial growth inhibition incubated for 24 hrs by Muller Hinton broth based dilution assay; assay type: functional
[3] = tested on: Escherichia coli; assay: Antimicrobial activity against Escherichia coli ATCC25922 assessed as log reduction in microbial load at 8 times of MIC measured at 0.5 hr by time-kill kinetics assay; assay type: functional
[4] = tested on: Cell membrane; assay: Disruption of outer membrane integrity in Acinetobacter baumannii ATCC17978
[5] = Cytotoxicity against mouse NCTC clone 929 cells assessed as viable cells at 25 ug/mL incubated for 24 hrs by CCK-8 assay relative to control; assay type: toxicity, cell-based; conditions: NCTC clone 929 (L929) cells, at 25 µg/mL, read-out: Activity
[6] = tested on: Cell membrane; assay: Induction of outer membrane permeabilization in Escherichia coli ATCC25922 assessed as increase in fluorescence intensity at 1 to 8 times of MIC measured for 1 hrs by NPN uptake assay
[7] = Cytotoxicity against mouse J774.A1 cells assessed as viable cells at 50 ug/mL incubated for 24 hrs by CCK-8 assay relative to control; assay type: toxicity, cell-based; conditions: at 50 µg/mL, read-out: Activity
[8] = tested on: Escherichia coli; assay: Antibiofilm activity against Escherichia coli ATCC25922 assessed as inhibition of biofilm formation at 6.25 ug/mL incubated for 24 hrs by crystal violet staining based analysis relative to control; assay type: functional
[9] = Cytotoxicity against mouse corneal epithelial cells assessed as viable cells at 25 ug/mL incubated for 24 hrs by CCK-8 assay relative to control; assay type: toxicity, cell-based, Corneal epithelial cell; conditions: at 25 µg/mL, read-out: Activity
[10] = tested on: Cell membrane; assay: Disruption of membrane integrity in Escherichia coli ATCC25922 assessed as red fluorescence at 8 times of MIC incubated for 2 hrs under dark condition by SYTO 9 and PI staining based laser confocal microscopy analysis
[11] = tested on: Candida albicans; assay: Antimicrobial activity against Candida albicans ATCC10231 assessed as fungal killing at 8 times of MIC measured at 0.5 hr by time-kill kinetics assay; assay type: functional, organism-based
[12] = tested on: Escherichia coli; assay: Antibiofilm activity against Escherichia coli ATCC25922 assessed as inhibition of biofilm formation at 0.78 ug/mL incubated for 24 hrs by crystal violet staining based analysis relative to control; assay type: functional
[13] = Cytotoxicity against mouse NCTC clone 929 cells assessed as viable cells at 12.5 ug/mL incubated for 24 hrs by CCK-8 assay relative to control; assay type: toxicity, cell-based; conditions: NCTC clone 929 (L929) cells, at 12.5 µg/mL, read-out: Activity
[14] = tested on: Candida albicans; assay: Antimicrobial activity against Candida albicans CMCC98001 assessed as fungal growth inhibition incubated for 48 hrs in presence of 100 ug/mL Ca2+ by Sabouraud Dextrose broth based dilution assay; assay type: functional
[15] = tested on: Candida albicans; assay: Antimicrobial activity against Candida albicans CMCC98001 assessed as fungal growth inhibition incubated for 48 hrs by Sabouraud Dextrose broth based dilution assay; assay type: functional
[16] = tested on: Staphylococcus aureus; assay: Disruption of preformed biofilm in Staphylococcus aureus ATCC29213 assessed as residual preformed biofilm at 0.78 ug/mL incubated for 24 hrs by crystal violet staining based analysis relative to control; assay type: functional; conditions: dose 0.78 µg/ml
[17] = tested on: Candida albicans; assay: Antimicrobial activity against Candida albicans CMCC98001 assessed as fungal growth inhibition incubated for 48 hrs in presence of 24.3 ug/mL […] by Sabouraud Dextrose broth based dilution assay; assay type: functional
[18] = tested on: Escherichia coli; assay: Disruption of preformed biofilm in Escherichia coli ATCC25922 assessed as residual preformed biofilm at 3.125 ug/mL incubated for 24 hrs by crystal violet staining based analysis relative to control; assay type: functional; conditions: dose 3.125 µg/ml
[19] = tested on: Escherichia coli; assay: Disruption of preformed biofilm in Escherichia coli ATCC25922 assessed as residual preformed biofilm at 6.25 ug/mL incubated for 24 hrs by crystal violet staining based analysis relative to control; assay type: functional; conditions: dose 6.25 µg/ml
[20] = tested on: Escherichia coli; assay: Antimicrobial activity against Escherichia coli ATCC25922 assessed as bacterial killing at 1 to 8 times of MIC measured upto 24 hrs by time-kill kinetics assay; assay type: functional, organism-based
[21] = tested on: Candida albicans; assay: Antimicrobial activity against Candida albicans ATCC10231 assessed as fungal killing at 4 times of MIC measured at 0.5 hr by time-kill kinetics assay; assay type: functional, organism-based
[22] = tested on: Staphylococcus aureus; assay: Disruption of preformed biofilm in Staphylococcus aureus ATCC29213 assessed as residual preformed biofilm at 0.39 ug/mL incubated for 24 hrs by crystal violet staining based analysis relative to control; assay type: functional; conditions: dose 0.39 µg/ml
[23] = tested on: Candida albicans; assay: Antimicrobial activity against Candida albicans ATCC10231 assessed as fungal killing at 8 times of MIC measured at 1 hr by time-kill kinetics assay; assay type: functional, organism-based

Structure (SMILES)	viability at 24 h, 6.25 ug/mL [1]	MIC [2]	log(activity) [3]	Activity [4]	viability at 24 h, 25 ug/mL [5]	Activity [6]	viability at 24 h, 50 ug/mL [7]	inhibition at 6.25 µg/mL [8]	viability at 24 h, 25 ug/mL [9]	Activity [10]	inhibition at 0.78 µg/mL [12]	viability at 24 h, 12.5 ug/mL [13]	MIC [14]	MIC [15]	Activity [16]	MIC [17]	Activity [18]	Activity [19]	Activity [20]	Activity [22]	other results
CCCCCCCCCN1CCCc2cc(OCCCCNC(=N)N)ccc21	92.1%	3.12 µg/mL (≈ 8.04 µM)	>3	Active	72.9%	Active	42.5%	100%	57.7%	Active	49.9%	89.4%	1.56 µg/mL	0.78 µg/mL (≈ 2.01 µM)	71.31%	0.78 µg/mL	32.54%	15.34%	Dose-Dependent Effect	81.8%	Activity [11]: Active; Activity [21]: Active
CC(C)=CCN1CCCc2cc(OCCCCCCCCNC(=N)N)ccc21	91.2%	3.12 µg/mL (≈ 8.08 µM)	>3	Active	77.9%	Active	31.3%	101%	76.9%	Active	32.2%	89.3%	1.56 µg/mL	0.78 µg/mL (≈ 2.02 µM)	70.52%	0.78 µg/mL	47.23%	18.49%	Dose-Dependent Effect	80.76%	Activity [23]: Active
